EP4324461A1, “(E)-N-CINAMOYLAMINOALKANOLES WITH MELANOGENESIS INHIBITORY ACTIVITY” (UNIWERSYTET JAGIELLONSKI, priority 2022, dated 2024)
“And” between values parts separate entries of the source, which are not always exact repeats. Identical values can stand only once. Like-named read-outs stand apart in the source and are kept apart here.

How the values were obtained:
[1] = Lipophilicity coefficient RM0 by reversed phase thin layer chromatography; type: physicochemical; details: RP-18 TLC, methanol / 100 mM phosphate buffer pH = 7.4
Protocol: Confirmation of the identity and purity of the obtained compounds consisted in the registration and interpretation of ^1H NMR and ^13C NMR spectra (the spectra were recorded using an ECZR 500 MHz (JEOL) series FT-NMR spectrophotometer), as well as the registration and interpretation of LC-MS spectra (the spectra were recorded using Acquita UPLC system (Waters) coupled with a Waters TQD mass spectrometer). The melting point was measured using the open capillary method in the IA9300 device (Electrothermal). The lipophilicity coefficient RM0 was determined by reversed phase thin layer chromatography. In the study, aluminum plates 20x20 cm covered with modified silica gel RP-18 F254 (Merck) were used as the solid phase. The mobile phase consisted of solutions of methanol and 100 mM phosphate buffer (pH = 7.4), characterized by a variable methanol content ranging from 95 to 65% (v/v). The tested compounds were dissolved in methanol to obtain solutions with a concentration of 1 mg/mL. Then, 5 µL of the solutions prepared in this way were transferred to the starting line on aluminum plates, which were then placed in chromatographic chambers previously saturated with mobile phase vapors for at least 1 hour. All activities, including the development of chromatograms, were carried out at room temperature. After developing the chromatograms to approximately 1-2 cm from the end of the plate, the plates were dried and then the distance traveled by the tested compounds was visualized under UV light (λ = 254 nm). The experiment was performed in duplicate for the specified conditions. For all samples, Rf was calculated according to the formula Rf = a/b, where a - the distance traveled by the tested compound, b - the distance traveled by the mobile phase. Then, the RM parameter was calculated for all samples according to the formula RM = log(1/Rf - 1), obtaining a linear relationship between the RM values and the methanol concentration in the mobile phase. The logP coefficient was also calculated using the following computer programs: ACD/ChemSketch 2020.1.2 and ChemDraw 20.0.0.41. Table 2. The physicochemical data of the compounds are presented below

tyrosinase from mushroom = experiment: Inhibition of commercial mushroom tyrosinase (L-DOPA or L-tyrosine substrate); type: biochemical
Protocol: The following substrates were used for the enzymatic reaction: L-tyrosine and L-3,4-dihyroxyphenylalanine (L-DOPA). Both substrates were used in independent experiments. According to the literature, the use of L-DOPA enables the assessment of tyrosinase diphenolase activity, and L-tyrosine - the tyrosinase monophenolase activity. The determinations were performed in 96-well plates, in each well there was placed: 170 µL or 127.5 µL of 50 mM phosphate buffer (pH = 6.8) with tyrosinase (1U/well or 3U/well) and 10 µL of a solution of the tested compound in DMSO (the final concentration in the well was 500 µM, 250 µM or 125 µM). The negative control used 10 µL of pure solvent (DMSO). To initiate the reaction, an appropriate substrate was added: L-tyrosine (62.5 µL of solution in phosphate buffer) or L-DOPA (20 µL of solution in phosphate buffer). After a 25-minute incubation, the absorbance was measured at 475 nm using a microplate reader. The percentage of inhibition of tyrosinase activity was calculated using the formula: [(AC -AT)/AC] × 100, where AC - is the absorbance of the negative control, AT - is the absorbance of the sample containing the tested compound.

[2] = system: B16-F10 murine melanoma cell line; experiment: Cytotoxicity in B16-F10 cells (MTT); type: cell-based; details: 48 h
Protocol: In order to determine safe doses of compounds for testing the inhibition of melanogenesis in a murine melanoma cell line, cytotoxicity tests were performed. Cytotoxicity was determined by the colorimetric method using MTT ([3-(4,5-dimethyl-2-thiazolyl)-2,5-diphenyl-2H-tetrazolium bromide, Sigma M5655). For this purpose, cells were transferred to 96-well plates in an amount of 5000/well. After 24 h of culture in an incubator in F 10-Ham medium with 1% FBS, the tested compounds at various concentrations were added to the wells together with fresh medium. DMSO was added to the medium in a negative control. The MTT test was performed after further culture for 48 h. Then the medium was removed and the formed formazan crystals were dissolved in DMSO. The absorbance was measured at 570 nm in a plate reader and the result was compared to the control (DMSO), which was 100%. The percentage of viability was calculated using the formula: [AT/AC^∗100], where AT is the absorbance of the test sample, AC - absorbance of the control sample. Table 3. Results of inhibiting the activity of monophenolase […] tyrosinase and cytotoxicity testing in B16F10 cells for the described compounds.

S. typhimurium TA100 = experiment: Ames microplate test, TA100; type: cell-based, Salmonella typhimurium; details: positive control (PC), 125 µg/mL, +S9;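 further: reference level is the mean solvent-control yellow wells plus SD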
Protocol: (§1) Bacteria were grown overnight in growth medium.
(§2) Table 9. Ames microplate test results.

S. typhimurium TA98 = experiment: Ames microplate test, TA98; type: cell-based, Salmonella typhimurium; details: positive control (PC), 0.5 µg/mL, +S9;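 further: reference level is the mean solvent-control yellow wells plus SD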
Protocol: as §1, §2

[3] = L-DOPA, read-out: Tyrosinase inhibition with L-DOPA, IC50
[4] = L-tyrosine, read-out: Tyrosinase inhibition with L-tyrosine, IC50

O=C(/C=C/c1ccc(Cl)cc1Cl)NCCCO [H-296/20, (2E)-3-(2,4-dichlorophenyl)-N-(3-hydroxypropyl)prop-2-enamide]
RM0 [1]: 2.11
Tyrosinase inhibition with L-DOPA [%] (tyrosinase from mushroom; L-DOPA): 18.63±1.67% (500 µM)
Tyrosinase inhibition with L-tyrosine [%] (tyrosinase from mushroom; L-tyrosine): 17.87±7.36% (500 µM)
Cytotoxicity study in B16F10 cells % viability ([2]; 150 µM): 67.0%
Cytotoxicity study in B16F10 cells % viability ([2]; 200 µM): 57.0%
Cytotoxicity study in B16F10 cells % viability ([2]; 250 µM): 38.3%

Cc1ccc(/C=C/C(=O)NCCCCO)cc1 [H-411/21, (2E)-N-(4-hydroxybutyl)-3-(4-methylphenyl)prop-2-enamide]
RM0 [1]: 2.27
Tyrosinase inhibition with L-DOPA [%] (tyrosinase from mushroom; L-DOPA): 16.89±7.94% (500 µM)
Tyrosinase inhibition with L-tyrosine [%] (tyrosinase from mushroom; L-tyrosine): 20.43±2.09% (500 µM)
Cytotoxicity study in B16F10 cells % viability ([2]; 150 µM): 50.6%
Cytotoxicity study in B16F10 cells % viability ([2]; 200 µM): 34.9%
Cytotoxicity study in B16F10 cells % viability ([2]; 250 µM): 41.2%

O=C(/C=C/c1ccccc1)NCCCCO [Compound A-43, (2E)-N-(4-hydroxybutyl)-3-phenylprop-2-enamide]
RM0 [1]: 1.60
Tyrosinase inhibition with L-DOPA [%] (tyrosinase from mushroom; L-DOPA): 34.55±4.18% (500 µM)
IC50 (tyrosinase from mushroom; [3]): 1560 µM
Tyrosinase inhibition with L-tyrosine [%] (tyrosinase from mushroom; L-tyrosine): 35.50±1.37% (500 µM)
IC50 (tyrosinase from mushroom; [4]): 1030 µM
Cytotoxicity study in B16F10 cells % viability ([2]; 150 µM): 108.9%
Cytotoxicity study in B16F10 cells % viability ([2]; 200 µM): 105.7%
Cytotoxicity study in B16F10 cells % viability ([2]; 250 µM): 103.2%

CC(C)C(CO)NC(=O)/C=C/c1ccc(Cl)cc1 (stereo not shown) [Compound A-106, (2E)-3-(4-chlorophenyl)-N-(1-hydroxy-3-methylbutan-2-yl)prop-2-enamide]
RM0 [1]: 2.76
Tyrosinase inhibition with L-DOPA [%] (tyrosinase from mushroom; L-DOPA): 41.17±0.81% (500 µM)
IC50 (tyrosinase from mushroom; [3]): 906 µM
Tyrosinase inhibition with L-tyrosine [%] (tyrosinase from mushroom; L-tyrosine): 57.62±2.11% (500 µM)
IC50 (tyrosinase from mushroom; [4]): 405 µM
Cytotoxicity study in B16F10 cells % viability ([2]; 150 µM): 85.9%
Cytotoxicity study in B16F10 cells % viability ([2]; 200 µM): 88.1%
Cytotoxicity study in B16F10 cells % viability ([2]; 250 µM): 72.6%

O=C(/C=C/c1ccccc1)NCCCO [KM-634, (2E)-N-(3-hydroxypropyl)-3-phenylprop-2-enamide]
RM0 [1]: 1.60
Tyrosinase inhibition with L-DOPA [%] (tyrosinase from mushroom; L-DOPA): 34.23±2.32% (500 µM)
Tyrosinase inhibition with L-tyrosine [%] (tyrosinase from mushroom; L-tyrosine): 27.41±2.24% (500 µM)
Cytotoxicity study in B16F10 cells % viability ([2]; 150 µM): 76.1%
Cytotoxicity study in B16F10 cells % viability ([2]; 200 µM): 70.5%
Cytotoxicity study in B16F10 cells % viability ([2]; 250 µM): 63.3%

CCC(O)CNC(=O)/C=C/c1ccc(C)cc1 (stereo not shown) [Compound A-63, (2E)-N-(2-hydroxybutyl)-3-(4-methylphenyl)prop-2-enamide]
RM0 [1]: 2.39
Tyrosinase inhibition with L-DOPA [%] (tyrosinase from mushroom; L-DOPA): 21.19±1.26% (500 µM)
Tyrosinase inhibition with L-tyrosine [%] (tyrosinase from mushroom; L-tyrosine): 30.22±10.22% (500 µM)
Cytotoxicity study in B16F10 cells % viability ([2]; 150 µM): 90.2%
Cytotoxicity study in B16F10 cells % viability ([2]; 200 µM): 87.3%
Cytotoxicity study in B16F10 cells % viability ([2]; 250 µM): 87.4%

O=C(/C=C/c1ccc(Cl)cc1Cl)NCCCCO [H-298/20, (2E)-3-(2,4-dichlorophenyl)-N-(4-hydroxybutyl)prop-2-enamide]
RM0 [1]: 2.78
Tyrosinase inhibition with L-DOPA [%] (tyrosinase from mushroom; L-DOPA): 11.16±2.78 (500 µM) %
Tyrosinase inhibition with L-tyrosine [%] (tyrosinase from mushroom; L-tyrosine): 20±2.96% (500 µM)
Cytotoxicity study in B16F10 cells % viability ([2]; 150 µM): 46.5%
Cytotoxicity study in B16F10 cells % viability ([2]; 200 µM): 40.6%
Cytotoxicity study in B16F10 cells % viability ([2]; 250 µM): 37.4%

Cc1ccc(/C=C/C(=O)NCCCO)cc1 [H-410/21, (2E)-N-(3-hydroxypropyl)-3-(4-methylphenyl)prop-2-enamide]
RM0 [1]: 2.04
Tyrosinase inhibition with L-DOPA [%] (tyrosinase from mushroom; L-DOPA): 16.99±5.66% (500 µM)
Tyrosinase inhibition with L-tyrosine [%] (tyrosinase from mushroom; L-tyrosine): 0.51±5.40% (500 µM)
Cytotoxicity study in B16F10 cells % viability ([2]; 150 µM): 88.8%
Cytotoxicity study in B16F10 cells % viability ([2]; 200 µM): 90.7%
Cytotoxicity study in B16F10 cells % viability ([2]; 250 µM): 79.8%

O=C(/C=C/c1ccc(Cl)cc1Cl)N1CCC(O)CC1 [H-310/20, (2E)-3-(2,4-dichlorophenyl)-1-(4-hydroxypiperidin-1-yl)prop-2-en-1-one]
RM0 [1]: 2.80
Tyrosinase inhibition with L-DOPA [%] (tyrosinase from mushroom; L-DOPA): 7.23±0.81% (500 µM)
Tyrosinase inhibition with L-tyrosine [%] (tyrosinase from mushroom; L-tyrosine): 19.24±3.44% (500 µM)
Cytotoxicity study in B16F10 cells % viability ([2]; 150 µM): 89.5%
Cytotoxicity study in B16F10 cells % viability ([2]; 200 µM): 100.4%
Cytotoxicity study in B16F10 cells % viability ([2]; 250 µM): 93.0%

CCC(CO)NC(=O)/C=C/c1ccc(Cl)cc1 (stereo not shown) [Compound A-01, (2E)-3-(4-chlorophenyl)-N-(1-hydroxybutan-2-yl)prop-2-enamide]
RM0 [1]: 2.43
Tyrosinase inhibition with L-DOPA [%] (tyrosinase from mushroom; L-DOPA): 43.99±2.60% (500 µM)
IC50 (tyrosinase from mushroom; [3]): 734 µM
Tyrosinase inhibition with L-tyrosine [%] (tyrosinase from mushroom; L-tyrosine): 61.80±0.40% (500 µM)
IC50 (tyrosinase from mushroom; [4]): 284 µM
Cytotoxicity study in B16F10 cells % viability ([2]; 150 µM): 73.6%
Cytotoxicity study in B16F10 cells % viability ([2]; 200 µM): 93.2%
Cytotoxicity study in B16F10 cells % viability ([2]; 250 µM): 85.4%

O=C(/C=C/c1ccc(Cl)cc1)N1CCC(O)CC1 [Compound A-99, (2E)-3-(4-chlorophenyl)-1-(4-hydroxypiperidin-1-yl)prop-2-en-1-one]
RM0 [1]: 2.27
Tyrosinase inhibition with L-DOPA [%] (tyrosinase from mushroom; L-DOPA, concentration not given): 54.87±1.47%
IC50 (tyrosinase from mushroom; [3]): 450 µM
Tyrosinase inhibition with L-tyrosine [%] (tyrosinase from mushroom; L-tyrosine): 75.14±1.60% (500 µM)
IC50 (tyrosinase from mushroom; [4]): 177 µM
Cytotoxicity study in B16F10 cells % viability ([2]; 150 µM): 109.8%
Cytotoxicity study in B16F10 cells % viability ([2]; 200 µM): 102.6%
Cytotoxicity study in B16F10 cells % viability ([2]; 250 µM): 96.6%

Nc1ccc2cc3ccccc3cc2c1 [Compound 2-AA, 2-aminoanthracene, reference compound]
Increase in the number of yellow wells compared to the reference level (S. typhimurium TA100): 4.00
Increase in the number of yellow wells compared to the reference level (S. typhimurium TA98): 24.00 and 15.03
